# Measurements taken from PubChem BioAssay (NCI).
#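 Where inhibition never reached the appropriate level, the endpoint shown equals the highest concentration tested. Otherwise, values were interpolated linearly from a five-concentration, 48-hour dose response in 96-well plates. GI50 marks 50% less growth. TGI: total growth inhibition.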
# What was measured:
# Test in all cases: NCI tumour cell line growth inhibition, 48 h
# [1] = tested on: OVCAR-8 ovarian
# [2] = tested on: HCT-15 colon
# [3] = tested on: UACC-62 melanoma
# [4] = tested on: MOLT-4 leukemia
# [5] = tested on: SK-MEL-2 melanoma
# [6] = tested on: K-562 leukemia
# [7] = tested on: TK-10 renal
# [8] = tested on: SN12C renal
# [9] = tested on: HCC-2998 colon
# [10] = tested on: RPMI-8226 leukemia
# [11] = tested on: HOP-62 NSCLC
# [12] = tested on: 786-0 renal
# [13] = tested on: OVCAR-3 ovarian
# [14] = tested on: M14 melanoma
# [15] = tested on: HOP-92 NSCLC
# [16] = tested on: SF-539 CNS
# [17] = tested on: SNB-19 CNS
# [18] = tested on: A549 NSCLC
# [19] = tested on: MCF7 breast
# [20] = tested on: U251 CNS
# [21] = tested on: MDA-MB-231 breast
# [22] = tested on: SK-MEL-5 melanoma
# [23] = tested on: BT-549 breast
# [24] = tested on: CAKI-1 renal
# [25] = tested on: LOX IMVI melanoma
# [26] = tested on: NCI/ADR-RES ovarian
# [27] = tested on: PC-3 prostate
# [28] = tested on: SK-OV-3 ovarian
structure (smiles),measurement,setting,value
Cc1noc2c(Cc3ccccc3)nn(CC(=O)N/N=C/c3ccc(Br)cc3)c(=O)c12,GI50,[1],4.62 µM
same,TGI,[1],> 100 µM
same,GI50,[2],> 100 µM
same,TGI,[2],> 100 µM
same,GI50,[3],13.2 µM
same,TGI,[3],49.6 µM
same,GI50,[4],50.6 µM
same,TGI,[4],> 100 µM
same,GI50,[5],17.5 µM
same,TGI,[5],33.7 µM
same,GI50,[6],25.7 µM
same,TGI,[6],> 100 µM
same,GI50,[7],3.01 µM
same,TGI,[7],9.71 µM
same,GI50,[8],3.27 µM
same,TGI,[8],> 100 µM
same,GI50,[9],> 100 µM
same,TGI,[9],> 100 µM
same,GI50,[10],29.1 µM
same,TGI,[10],> 100 µM
same,GI50,[11],3.37 µM
same,TGI,[11],13.1 µM
same,GI50,[12],1.89 µM
same,TGI,[12],4.17 µM
same,GI50,[13],3.36 µM
same,TGI,[13],> 100 µM
same,GI50,[14],29.8 µM
same,TGI,[14],> 100 µM
same,GI50,[15],4.3 µM
same,TGI,[15],21.5 µM
same,GI50,[16],15.8 µM
same,TGI,[16],36.8 µM
same,GI50,[17],13.3 µM
same,TGI,[17],30.2 µM
same,GI50,[18],6.34 µM
same,TGI,[18],> 100 µM
same,GI50,[19],77 µM
same,TGI,[19],> 100 µM
same,GI50,[20],3.48 µM
same,TGI,[20],30 µM
same,GI50,[21],3.34 µM
same,TGI,[21],12.7 µM
same,GI50,[22],28.4 µM
same,TGI,[22],> 100 µM
same,GI50,[23],17.7 µM
same,TGI,[23],49.4 µM
same,GI50,[24],5.6 µM
same,TGI,[24],25.2 µM
same,GI50,[25],8.98 µM
same,TGI,[25],> 100 µM
same,GI50,[26],5.64 µM
same,TGI,[26],> 100 µM
same,GI50,[27],29.8 µM
same,TGI,[27],> 100 µM
same,GI50,[28],3.19 µM
